Where two headings read alike, the source gives them in different places.
Experiments:
HCV = details: combination therapy, HCV infected patients; cited from earlier work
[1] = system: HCV genotype 1a (H77 strain) replicon in HUH-7 cells; assay: HCV replicon luciferase reporter assay, genotype 1a; format: cell-based; details: Hepatitis C virus, Huh-7, 72 h, 3 days incubation, read-out: LE_1a (EC50, range)
Outline: (§1)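 Replicon inhibition for both genotypes was measured as Renilla luciferase signal (EnduRen, 7.5 μM final, 2 h) after 3-day, 37° C exposure of replicon-bearing HUH-7 cells in 4% FCS DMEM, 0.5% DMSO. The 1b construct carries S1179I; the 1a H77 construct carries P1496L and S2204I. Twenty-point, 3-fold dilutions were fitted four-parametrically for EC50, and CC50 was taken from multiplexed Cell Titer-Blue.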

[2] = system: HCV genotype 1b (Con1) replicon in HUH-7 cells; assay: HCV replicon luciferase reporter assay, genotype 1b; format: cell-based; details: Hepatitis C virus, Huh-7, 72 h, 3 days incubation, read-out: LE_1b (EC50, range)
Outline: as §1

[3] = HCV genotype 1a replicon luciferase assay, range class
[4] = HCV genotype 1b replicon luciferase assay, range class
[5] = HCV genotype 1a replicon luciferase
[6] = HCV genotype 1b replicon luciferase

Row | Compound | sustained efficacy (HCV) | EC50 [1, 3] [nM] | EC50 [2, 4] [nM] | EC50 [1, 5] [nM] | EC50 [2, 6] [nM]
1 | alpha-interferon and ribavirin | 40 % of patients |  |  |  | 
2 | CC[C@@H]1C[C@@H](C)CC/C=C\[C@@H]2C[C@@]2(C(=O)NS(=O)(=O)C2(C)CC2)NC(=O)[C@@H]2C[C@@H](Oc3nc(OC)cc4cc(OC)ccc34)CN2C(=O)[C@H]1NC(=O)OC1(C(F)(F)F)CCCOC1 (stereo partly drawn) [Compound 1178, 3-(trifluoromethyl)tetrahydro-2H-pyran-3-yl((2R,6S,7R,9S,13aS,14aR,16aS,Z)-2-((3,6-dimethoxyisoquinolin-1-yl)oxy)-7-ethyl-9-methyl-14a-(((1-methylcyclopropyl)sulfonyl)carbamoyl)-5,16-dioxo-1,2,3,5,6,7,8,9,10,11,13a,14,14a,15,16,16a-hexadecahydrocyclopropa[e]pyrrolo[1,2-a][1,4]diazacyclopentadecin-6-yl)carbamate] |  | < 5.46 | < 5.46 |  | 
3 | COc1ccc2c(O[C@@H]3C[C@H]4C(=O)N[C@]5(C(=O)NS(=O)(=O)C6CC6)C[C@H]5/C=C\CC[C@H](C)C[C@@H](C)[C@H](NC(=O)O[C@@H]5C[C@@H]6C[C@@H]6C5)C(=O)N4C3)nccc2c1F [Compound 3151, (1R,3r,5S)-bicyclo[3.1.0]hexan-3-yl((2R,6S,7R,9S,13aS,14aR,16aS,Z)-14a-((cyclopropylsulfonyl)carbamoyl)-2-((5-fluoro-6-methoxyisoquinolin-1-yl)oxy)-7,9-dimethyl-5,16-dioxo-1,2,3,5,6,7,8,9,10,11,13a,14,14a,15,16,16a-hexadecahydrocyclopropa[e]pyrrolo[1,2-a][1,4]diazacyclopentadecin-6-yl)carbamate] |  | 4.82 to 103 | < 5.46 |  | 
4 | CC[C@@H]1C[C@H](C)CC/C=C\[C@@H]2C[C@@]2(C(=O)NS(=O)(=O)C2(C)CC2)NC(=O)[C@@H]2C[C@@H](Oc3cc(-n4cccn4)nc4cc(OC)ccc34)CN2C(=O)[C@H]1NC(=O)OC(C)(C)C [Compound 4245, tert-butyl ((2R,6S,7R,9R,13aS,14aR,16aS,Z)-7-ethyl-2-((7-methoxy-2-(1H-pyrazol-1-yl)quinolin-4-yl)oxy)-9-methyl-14a-(((1-methylcyclopropyl)sulfonyl)carbamoyl)-5,16-dioxo-1,2,3,5,6,7,8,9,10,11,13a,14,14a,15,16,16a-hexadecahydrocyclopropa[e]pyrrolo[1,2-a][1,4]diazacyclopentadecin-6-yl)carbamate] |  |  |  | 0.51 to 1 | 0.1 to 0.5
5 | COc1cc(F)cc2c(O[C@@H]3C[C@H]4C(=O)N[C@]5(C(=O)NS(=O)(=O)C6(C)CC6)C[C@H]5/C=C\CC[C@@H](C)C[C@@H](C)[C@H](NC(=O)OC(C)(C)C(F)(F)F)C(=O)N4C3)nccc12 [Compound 3156, 1,1,1-trifluoro-2-methylpropan-2-yl((2R,6S,7R,9R,13aS,14aR,16aS,Z)-2-((7-fluoro-5-methoxyisoquinolin-1-yl)oxy)-7,9-dimethyl-14a-(((1-methylcyclopropyl)sulfonyl)carbamoyl)-5,16-dioxo-1,2,3,5,6,7,8,9,10,11,13a,14,14a,15,16,16a-hexadecahydrocyclopropa[e]pyrrolo[1,2-a][1,4]diazacyclopentadecin-6-yl)carbamate] |  | < 5.46 | < 5.46 |  | 
6 | CC(C)Oc1cc2ccccc2c(O[C@@H]2C[C@H]3C(=O)N[C@]4(C(=O)NS(=O)(=O)C5(CF)CC5)C[C@H]4/C=C\CC[C@@H](C)C[C@@H](C)[C@H](NC(=O)OC(C)(C)C(F)(F)F)C(=O)N3C2)n1 [Compound 6116, 1,1,1-trifluoro-2-methylpropan-2-yl((2R,6S,7R,9R,13aS,14aR,16aS,Z)-14a-(((1-(fluoromethyl)cyclopropyl)sulfonyl)carbamoyl)-2-((3-isopropoxyisoquinolin-1-yl)oxy)-7,9-dimethyl-5,16-dioxo-1,2,3,5,6,7,8,9,10,11,13a,14,14a,15,16,16a-hexadecahydrocyclopropa[e]pyrrolo[1,2-a][1,4]diazacyclopentadecin-6-yl)carbamate] |  |  |  | 1.01 to 5 | 1.01 to 5
7 | COc1cnc(O[C@@H]2C[C@H]3C(=O)N[C@]4(C(=O)NS(=O)(=O)C5(CF)CC5)C[C@H]4/C=C\CC[C@@H](C)C[C@@H](C)[C@H](NC(=O)OC4(C)COC4)C(=O)N3C2)c2ccccc12 [Compound 1045, 3-methyloxetan-3-yl ((2R,6S,7R,9R,13aS,14aR,16aS,Z)-14a-(((1-(fluoromethyl)cyclopropyl)sulfonyl)carbamoyl)-2-((4-methoxyisoquinolin-1-yl)oxy)-7,9-dimethyl-5,16-dioxo-1,2,3,5,6,7,8,9,10,11,13a,14,14a,15,16,16a-hexadecahydrocyclopropa[e]pyrrolo[1,2-a][1,4]diazacyclopentadecin-6-yl)carbamate] |  | < 5.46 | < 5.46 |  | 

From patent US9499550B2 (BRISTOL-MYERS SQUIBB COMPANY, priority 2012, dated 2016)
